According to article PMC13252604, “First Generation Proteolysis Targeting Chimeras (PROTACs) for the Treatment of Progeria” (Advanced Science, 2026):

Assays:
Stability in human serum = format: in vitro ADME
Text: TABLE 1 Pharmacokinetic parameters of PROTAC 2. | column: Stability (hours) ^b / h‐serum

[1] = Parallel artificial membrane permeability assay (PAMPA); format: in vitro ADME; details: read-out: P, permeability
Protocol: Pharmacokinetic properties, including solubility and membrane permeability, are critical in drug discovery but can pose challenges in PROTAC development […] The calculated logarithm of the partition coefficient between n‐octanol and water (clogP), determined using ACDLabs Percepta Software, indicated an acceptable lipophilicity for PROTAC 2 (clogP = 3.94), aligning with Lipinski's “rule of 5” (clogP<5). […] Compound permeability was assessed using the parallel artificial membrane permeability assay (PAMPA), which measures the ability of compounds to diffuse through a lipid‐infused artificial membrane. […] The cellular uptake of compound 2 was further confirmed by fluorescence microscopy, leveraging the intrinsic fluorescence of pomalidomide‐bearing derivatives (Figure S4).

[2] = tested on: Lmna^G609G/G609G fibroblasts; test: Cell viability assay (MTT); format: cell-based, mouse; details: up to 50 µM, 24 h
Protocol: (§1) Cpd!" 2 Cpd#$ 9 Cpd!" 2 Cpd#$ 9
(§2) Supporting Figure S3. Cellular cytotoxicity of compounds 2 and 9. Viability of progeroid […]/G609G and wild type Lmna+/+ fibroblasts treated with compounds at 5-50 µM for 24 h. Viability is expressed as the percentage relative to cells treated with vehicle (0.1% DMSO) which are considered 100% viable. Error bars represent the average±SD from three independent experiments carried out in duplicate.
(§3) (also on this page, place not known: !" #$**+,-./-*-01+234 !" #$**+,-./-*-01+234 Cpd2 Cpd2Cpd9 Cpd9) […]
(§4) was saturated at 100 ppm. Relative STD effects were calculated by comparing the intensity of the signals in the STD-NMR spectrum with signal intensities of the reference spectrum (off-resonance). The STD signal with the highest intensity was set to 100%, a nd other STD signals were calculated accordingly. […]
(§5) Cell viability was assessed as previously described.[64] […] Once supernatants were removed, formazan crystals previously formed by viable cells were dissolved in DMSO (100 μL/ well) and absorbance was measured at 570 nm (OD570-630) using an Asys UVM 340 (Biochrom Ltd., Cambridge, UK) microplate reader. Background absorbance from blank wells containing only media with compound or vehicle were subtracted from each test well. […]

Lmna^+/+ fibroblasts = test: Cell viability assay (MTT); format: cell-based, mouse; details: up to 50 µM, 24 h
Protocol: as §1, §2, §3, §4, §5

With `CC1(C)Oc2cc3oc(=O)ccc3cc2C[C@@H]1OC(=O)CCCCCNc1cccc2c1C(=O)N(C1CCC(=O)NC1=O)C2=O` (stereo partly shown) [compound 2] the “Stability (hours) h‐serum” value (Stability in human serum) was over 24 h, the Papp [1] was 6.7 ×10⁻⁶ cm/s and the “cytotoxicity (cell viability)” value [2] was “did not induce significant cytotoxicity”. For the same compound, the “cytotoxicity (cell viability)” value (Lmna^+/+ fibroblasts) was “did not induce significant cytotoxicity”.
